Assays:
[1] = tested on: Klebsiella pneumoniae; test: Antibacterial activity against VIM-1 expressing Klebsiella pneumoniae IHMA599644 assessed as inhibition of bacterial growth in presence of IMI by absorbance based assay; assay type: functional
[2] = Inhibition of Metallo-beta-lactamase IMP-1 (unknown origin); design: species or system Bacteria
[3] = target: Metallo-beta-lactamase type 2 (Bacteria, UniProt C7C422); test: Inhibition of Metallo-beta-lactamase NDM-1 (unknown origin)
[4] = Inhibition of Metallo-beta-lactamase VIM-1 (unknown origin); design: species or system Bacteria
[5] = tested on: Escherichia coli; test: Antibacterial activity against NDM-1 expressing Escherichia coli CLB30016 assessed as inhibition of bacterial growth in presence of IMI by absorbance based assay; assay type: functional
[6] = tested on: Serratia marcescens; test: Antibacterial activity against IMP-1 expressing Serratia marcescens CL5741 assessed as inhibition of bacterial growth in presence of IMI by absorbance based assay; assay type: functional
[7] = Inhibition of Metallo-beta-lactamase VIM-2 (unknown origin); design: species or system Bacteria
[8] = Toxicity in cardiovascular rat model assessed as increase in histamine release in plasma at 3 mg/kg,iv for 20 mins followed by 10 mg/kg, iv dose for next 20 mins and measured after 20 mins of iv dose with 30 mg/kg; assay type: organism-based; settings: in vivo, 1 h, time 60 min
[9] = Toxicity in rat assessed as watery eyes at 1 mg/kg, iv; assay type: organism-based; settings: in vivo
[10] = tested on: Pseudomonas aeruginosa; test: Antibacterial activity against mutant isogenic efflux/IMP-1 expressing Pseudomonas aeruginosa MB9799 assessed as inhibition of bacterial growth in presence of IMI by absorbance based assay; assay type: functional
[11] = Toxicity in cardiovascular rat model assessed as decrease in blood pressure at 3 mg/kg,iv for 20 mins followed by 10 mg/kg, iv dose for next 20 mins and measured after 20 mins of iv dose with 30 mg/kg; assay type: organism-based; settings: in vivo, 1 h, time 60 min
[12] = Toxicity in cardiovascular rat model assessed as increase in histamine release in plasma at 30 mg/kg, iv; assay type: organism-based; settings: in vivo
[13] = Toxicity in rat mast cells assessed as degranulation by measuring histamine release at >=300 microM; assay type: cell-based; settings: mast cell
[14] = Cmax in rat at 30 mg/kg, iv; assay type: ADME, organism-based; settings: in vivo
[15] = Toxicity in rat assessed as emesis at 1 mg/kg, iv; assay type: organism-based; settings: in vivo
[16] = Efflux ratio of MITC95 for antibacterial activity against wildtype isogenic efflux/IMP-1 expressing Pseudomonas aeruginosa MB9798 assessed as inhibition of bacterial growth in presence of IMI to MITC95 for antibacterial activity against mutant isogenic efflux/IMP-1 expressing Pseudomonas aeruginosa MB9799 assessed as inhibition of bacterial growth in presence of IMI; assay type: functional
[17] = Toxicity in rat assessed as anaphylaxis at 1 mg/kg, iv; assay type: organism-based; settings: in vivo
[18] = tested on: Pseudomonas aeruginosa; test: Antibacterial activity against wildtype isogenic efflux/IMP-1 expressing Pseudomonas aeruginosa MB9798 assessed as inhibition of bacterial growth in presence of IMI by absorbance based assay; assay type: functional
[19] = Toxicity in dog assessed as watery eyes at 1 mg/kg; assay type: organism-based, Canis lupus familiaris; settings: in vivo
[20] = Toxicity in dog assessed as anaphylaxis at 1 mg/kg; assay type: organism-based, Canis lupus familiaris; settings: in vivo
[21] = Toxicity in dog assessed as emesis at 1 mg/kg; assay type: organism-based, Canis lupus familiaris; settings: in vivo
[22] = Cmax in rat at 5 mg/kg, iv; assay type: ADME, organism-based; settings: in vivo
[23] = Toxicity in rat mast cells assessed as degranulation by measuring histamine release at >=33 microM; assay type: cell-based; settings: mast cell
[24] = Toxicity in cardiovascular rat model assessed as increase in histamine release in plasma at 5 mg/kg, iv measured after >8 mins; assay type: organism-based; settings: in vivo
[25] = Cmax in rat at 1 mg/kg, iv; assay type: ADME, organism-based; settings: in vivo
[26] = Clearance in rat at 1 mg/kg, iv; assay type: ADME, organism-based; settings: in vivo
[27] = AUC in rat at 1 mg/kg, iv; assay type: ADME, organism-based; settings: in vivo
[28] = MRT in rat at 1 mg/kg, iv; assay type: ADME, organism-based; settings: in vivo
[29] = Unbound fraction in rat plasma at 1 mg/kg, iv; assay type: ADME, organism-based
[30] = Volume of distribution at steady state in rat at 1 mg/kg, iv; assay type: ADME, organism-based; settings: in vivo, read-out: Vdss
[31] = AUC in rat at 4 mg/kg, iv; assay type: ADME, organism-based; settings: in vivo
[32] = MRT in rat at 4 mg/kg, iv; assay type: ADME, organism-based; settings: in vivo
[33] = Toxicity in rat mast cells assessed as degranulation by measuring histamine release at >=100 microM; assay type: cell-based; settings: mast cell
[34] = Toxicity in rat assessed as adverse effect at 4 mg/kg, iv; assay type: organism-based; settings: in vivo
[35] = Clearance in rat at 4 mg/kg, iv; assay type: ADME, organism-based; settings: in vivo
[36] = Cmax in rat at 4 mg/kg, iv; assay type: ADME, organism-based; settings: in vivo
[37] = Toxicity in cardiovascular rat model assessed as increase in histamine release in plasma at 4 mg/kg, iv; assay type: organism-based; settings: in vivo
[38] = Unbound fraction in rat plasma at 4 mg/kg, iv; assay type: ADME, organism-based
[39] = Volume of distribution at steady state in rat at 4 mg/kg, iv; assay type: ADME, organism-based; settings: in vivo, read-out: Vdss

Sequence of Metallo-beta-lactamase type 2 (C7C422 whole entry): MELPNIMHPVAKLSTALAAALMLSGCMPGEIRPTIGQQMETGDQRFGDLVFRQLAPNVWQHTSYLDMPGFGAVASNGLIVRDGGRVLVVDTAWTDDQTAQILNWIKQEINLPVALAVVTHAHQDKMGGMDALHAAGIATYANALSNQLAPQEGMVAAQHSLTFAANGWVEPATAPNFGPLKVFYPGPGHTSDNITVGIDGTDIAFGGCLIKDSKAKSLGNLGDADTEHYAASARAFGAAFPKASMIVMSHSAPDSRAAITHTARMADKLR

Structure (SMILES): Cc1ccc(-c2cccc(S(N)(=O)=O)c2-c2nnn[nH]2)cc1
- MITC95 [1]: 127 µM
- IC50 [2]: 64 nM
- IC50 [3]: 3.7 nM
- IC50 [4]: 57 nM
- MITC95 [5]: 1.5 µM
- MITC95 [6]: 14 µM

Structure (SMILES): NS(=O)(=O)c1c(CC2CCNCC2)ccc(-c2ccc(C3CCNCC3)cc2)c1-c1nn[nH]n1
- MITC95 [1]: 2.3 µM
- IC50 [7]: 1230 nM
- Activity [8]: Toxic
- Activity [9]: Toxic
- MITC95 [10]: 0.8 µM
- Activity [11]: Toxic
- IC50 [2]: 24 nM
- Activity [12]: Toxic
- Activity [13]: Toxic
- IC50 [3]: 11 nM
- IC50 [4]: 5 nM
- MITC95 [5]: 2 µM
- Cmax [14]: 459 µM
- Activity [15]: Toxic
- Ratio [16]: 6
- MITC95 [6]: 3.9 µM
- Activity [17]: Toxic
- MITC95 [18]: 4.4 µM
- Activity [19]: Toxic
- Activity [20]: Toxic
- Activity [21]: Toxic

Structure (SMILES): NS(=O)(=O)c1c(CC2CNC2)ccc(-c2ccc(C3CCNCC3)cc2)c1-c1nn[nH]n1
- Cmax [22]: 45 µM
- Activity [23]: Toxic
- Activity [24]: Toxic

Structure (SMILES): NS(=O)(=O)c1cccc(-c2ccc(C3CCNCC3)cc2)c1-c1nn[nH]n1
- MITC95 [1]: 38 µM
- MITC95 [10]: 1.56 µM
- IC50 [2]: 34 nM
- IC50 [4]: 19 nM
- MITC95 [5]: 3 µM
- Ratio [16]: 128
- MITC95 [6]: 9 µM
- MITC95 [18]: 200 µM

Structure (SMILES): NS(=O)(=O)c1c(C(F)(F)F)ccc(-c2ccc(C3CCNCC3)cc2)c1-c1nn[nH]n1
- MITC95 [1]: 1.9 µM
- MITC95 [10]: 0.78 µM
- IC50 [2]: 1.2 nM
- IC50 [3]: 0.9 nM
- IC50 [4]: 0.3 nM
- MITC95 [5]: 0.7 µM
- Ratio [16]: 64
- MITC95 [6]: 0.2 µM
- MITC95 [18]: 50 µM

Structure (SMILES): NCCS(=O)(=O)c1ccc(-c2ccc(C3CCNCC3)cc2)c(-c2nn[nH]n2)c1S(N)(=O)=O
- MITC95 [1]: 3.13 µM
- MITC95 [10]: 0.78 µM
- IC50 [2]: 0.17 nM
- IC50 [4]: 0.2 nM
- MITC95 [5]: 1.56 µM
- Ratio [16]: 2
- MITC95 [6]: 1.56 µM

Structure (SMILES): NS(=O)(=O)c1c(SC2CCNCC2)ccc(-c2ccc(C3CCNCC3)cc2)c1-c1nnn[nH]1
- MITC95 [1]: 6.25 µM
- MITC95 [10]: 0.78 µM
- IC50 [2]: 35.7 nM
- IC50 [4]: 48.5 nM
- MITC95 [5]: 1.56 µM
- Ratio [16]: 32
- MITC95 [6]: 3.13 µM
- MITC95 [18]: 25 µM

Structure (SMILES): Cc1ccc(-c2ccc(S(=O)(=O)C3CNC3)c(S(N)(=O)=O)c2-c2nn[nH]n2)c2nc(N)[nH]c12
- MITC95 [1]: 1.56 µM
- MITC95 [10]: 0.78 µM
- IC50 [2]: 0.47 nM
- IC50 [3]: 0.04 nM
- IC50 [4]: 0.24 nM
- MITC95 [5]: 1.56 µM
- Ratio [16]: 1
- MITC95 [6]: 0.78 µM
- MITC95 [18]: 0.78 µM

Structure (SMILES): NS(=O)(=O)c1c([S+]([O-])C2CCNCC2)ccc(-c2ccc(C3CCNCC3)cc2)c1-c1nnn[nH]1 (configuration not stated)
- MITC95 [1]: 6.25 µM
- IC50 [7]: 1090 nM
- MITC95 [10]: 1.56 µM
- IC50 [2]: 5.9 nM
- IC50 [4]: 1.18 nM
- MITC95 [5]: 3.13 µM
- Ratio [16]: 2
- MITC95 [6]: 6.25 µM
- MITC95 [18]: 3.1 µM

Structure (SMILES): NS(=O)(=O)c1c(S(=O)(=O)C2CCNCC2)ccc(-c2ccc(C3CCNCC3)cc2)c1-c1nnn[nH]1
- MITC95 [1]: 3.13 µM
- IC50 [7]: 4.1 nM
- Cmax [25]: 15.8 µM
- MITC95 [10]: 0.78 µM
- clearance [26]: 3.8 mL/min/kg
- AUC [27]: 8.4 µM·h
- IC50 [2]: 0.52 nM
- IC50 [4]: 0.31 nM
- MITC95 [5]: 1.56 µM
- Ratio [16]: 1
- MITC95 [6]: 3.13 µM
- MRT [28]: 46.8 min
- fraction unbound [29]: 0.66
- MITC95 [18]: 0.78 µM
- Vd [30]: 0.18 L/kg

Structure (SMILES): CS(=O)(=O)c1ccc(-c2ccc(C3CCNCC3)cc2)c(-c2nnn[nH]2)c1S(N)(=O)=O
- MITC95 [1]: 3.13 µM
- IC50 [7]: 2.6 nM
- MITC95 [10]: 0.78 µM
- IC50 [2]: 0.1 nM
- IC50 [4]: 0.13 nM
- MITC95 [5]: 3.13 µM
- Ratio [16]: 8
- MITC95 [6]: 3.13 µM
- MITC95 [18]: 6.25 µM

Structure (SMILES): NS(=O)(=O)c1c(S(=O)(=O)C2CNC2)ccc(-c2ccc(C3CCNCC3)cc2)c1-c1nn[nH]n1
- AUC [31]: 15.6 µM·h
- MITC95 [1]: 1.56 µM
- IC50 [7]: 2.8 nM
- MRT [32]: 40.2 min
- Activity [33]: Toxic
- Activity [34]: Non-toxic
- MITC95 [10]: 0.78 µM
- clearance [35]: 8.5 mL/min/kg
- IC50 [2]: 0.21 nM
- Cmax [36]: 35.7 µM
- IC50 [4]: 0.2 nM
- Activity [37]: Non-toxic
- MITC95 [5]: 0.78 µM
- fraction unbound [38]: 0.55
- Ratio [16]: 1
- MITC95 [6]: 1.56 µM
- MITC95 [18]: 0.78 µM
- Vd [39]: 0.34 L/kg

Structure (SMILES): Nc1nc2c(-c3ccc(S(=O)(=O)C4CCNCC4)c(S(N)(=O)=O)c3-c3nn[nH]n3)cccc2s1
- MITC95 [1]: 6.25 µM
- IC50 [7]: 0.4 nM
- MITC95 [10]: 1.56 µM
- IC50 [2]: 0.46 nM
- IC50 [3]: 0.12 nM
- IC50 [4]: 0.26 nM
- MITC95 [5]: 3.13 µM
- Ratio [16]: 1
- MITC95 [6]: 3.13 µM
- MITC95 [18]: 1.56 µM
